Tests used:
[1] = test system: CTP:phosphocholine cytidylyltransferase (CCT); assay: CCT assay in hippocampal neuron homogenates with substance added to the assay mixture; format: biochemical, rat; conditions: 0.5 mM DOPC/0.5 mM oleic acid/0.3 mM sphingolipid or lyso-sphingolipid; 8-day-old neurons
Method: (§1) Neurons from individual cover slips were washed twice with ice-cold phosphate-buffered saline, and cells removed by scraping into 300 μl of buffer containing 50 mM imidazole, 2 mM EDTA, 150 mM KCl, 6 mM ADP, 0.2 mM phenylmethylsulfonylfluoride, 1 μg/ml pepstatin and 1 μg/ml leupeptin. After brief sonication, an aliquot was removed for DNA determination and 100 μl was used for the CCT assay.
(§2) CCT was assayed as described (Weinhold P A and Feldman D A. 1992. Choline-phosphate cytidylyltransferase. Methods Enzymol. 209, 248-258), with some minor modifications. The assay was performed in a final volume of 200 μl containing 1.6 mM phosphorylcholine/0.25 μCi [^14C]methyl phosphorylcholine, 3 mM CTP, 12 mM magnesium acetate, and DOPC liposomes with or without oleic acid and GicCer or GalCer, as indicated in the figure legends. Liposomes were prepared by sonicating resuspended lipids in the assay buffer at room temperature for 3 min using a sonicator (Sonics & Materials Inc., Newtown, Conn.) fitted with a micro-tip probe set to 750 W output, using 25% of the maximal amplitude and with pulsations of 9.0 sec every 9.2 sec, which gave a translucent liposome preparation with no precipitates. The final concentration of DOPC and oleic acid in the liposomes was 500 μM each. The reaction was terminated after 25 min at 37° C. by addition of 200 μl of 150 mM phosphorylcholine in 10% trichloroacetic acid. CDP-choline was recovered by addition of 2 ml of 6% charcoal in water (w/v). After 30 min at room temperature the charcoal suspension was washed 4 times with water and centrifuged at 1,000 gav for 10 min. The aqueous supernatants were removed and CDP-choline was eluted from the charcoal with 3 washes of water/ethanol/28% NH4OH (116:188:11, v/v/v). Eluates were pooled and evaporated to dryness under N2. Phosphorylcholine and CDP-choline were added to the tubes and the samples separated by TLC using 0.9% NaCl/methanol/28% NE4OH (50:70:5, v/v/v) as the developing solvent. Metabolites were identified by iodine, and the CDP-choline spot was scraped into scintillation vials for scintillation counting.
CCT activity was assayed in homogenates prepared from 8-day-old normal rat hippocampal neurons as described herein above. The reaction mixture comprised 0.5 mM DOPC/0.5 mM oleic acid/0.3 mM sphingolipid or lyso-sphingolipid. CCT activity with each sphingolipid or lyso-sphingolipid was measured twice. Basal CCT activity differed by ˜20% between the two experiments; however, the extent of activation or inhibition of CT activity was similar for each sphingolipid and lyso-sphingolipid.

[2] = test system: CTP:phosphocholine cytidylyltransferase (CCT); assay: CCT assay in rat brain cortical homogenates with liposomes; format: biochemical
Method: as §2
When CCT was assayed in rat or mouse brain cortical homogenates (1 g tissue/12.5 ml of buffer), the homogenate was first centrifuged (200 gav, 20 min) to remove cell debris. The homogenate was diluted with assay buffer to give a final concentration of 200 μg protein/ml. CCT activity was also assayed using purified rat brain CCT (see below).

[3] = test system: CTP:phosphocholine cytidylyltransferase (CCT); assay: as above; format: biochemical; conditions: DOPC liposomes, 200 μM; for CCT activity: 8.9±1.0 without lipid
purified rat brain CCT = assay: CCT assay with purified rat brain CCT and liposomes; format: biochemical
Method: as §2
Rat brain CCT was purified by a method similar to that described for rat liver (Weinhold and Feldman, supra; Weinhold P A Rounsifer M E and Feldman D A. 1986. The purification and characterization of CTP:phosphorylcholine cytidylyltransferase from rat liver. J Biol Chem 261:5104-5110). Rat brains (11 g) were isolated from 8-10-week old rats and homogenized in 51 ml of buffer A (50 mM Tris-HCl pH 7.4, 150 mM NaCl, 1 mM EDTA, 2 mM dithiothreitol, 0.025% (w/v) sodium azide, 1 mM phenylmethylsulfonylfluoride). Brain cytosol was prepared by collecting the supernatants obtained after two sequential centrifugation steps at 10,000 gav for 20 min, and 100,000 gav for 1 h. The protein concentration of the cytosol was adjusted to 6 mg/ml with buffer A, egg yolk PC/oleic acid liposomes were added, followed by acid precipitation. The precipitate was re-suspended in 54 ml of buffer A containing 20 mM n-octyl-β-D-glucopyranoside and 1 mM phenylmethylsulfonylfluoride for 30 min at room temperature. After centrifugation (10,000 gav, 20 min), the n-octyl-β-D-glucopyranoside extract was loaded onto a DEAE-sepharose CL-6B column that had been previously packed and equilibrated with 300 ml of buffer A. All elution procedures were performed using a flow rate of 40 ml/h. The column was successively washed with 100 ml of buffer A, 300 ml of a gradient of 150 mM to 300 mM NaCl in buffer B (50 mM Tris-HCl pH 7.4, 1 mM EDTA, 2 mM dithiothreitol, 0.025% (w/v) sodium azide), and 150 ml of buffer B containing 300 mM NaCl. CCT was eluted with 70 ml of buffer B containing 400 mM NaCl and 50 mM n-octyl-β-D-glucopyranoside.
The fractions containing CCT activity were pooled, diluted with 4 volumes of buffer A and loaded onto a HTP gel hydroxyapatite column (BioRad) that had previously been equilibrated with 200 ml of buffer A. Elutions were performed at flow rates of 20 ml/hour. […]

rat hippocampal neurons = conditions: 50 μM PDMP; cited from earlier work
[4] = test system: CTP:phosphocholine cytidylyltransferase (CCT); assay: CCT assay in homogenates of treated hippocampal neurons; format: cell-based, rat; conditions: 50 μM PDMP
Method: as §1
CCT was assayed as described (Weinhold P A and Feldman D A. 1992. Choline-phosphate cytidylyltransferase. Methods Enzymol. 209, 248-258), with some minor modifications. The assay was performed in a final volume of 200 μl containing 1.6 mM phosphorylcholine/0.25 μCi [^14C]methyl phosphorylcholine, 3 mM CTP, 12 mM magnesium acetate, and DOPC liposomes with or without oleic acid and GicCer or GalCer, as indicated in the figure legends. Liposomes were prepared by sonicating resuspended lipids in the assay buffer at room temperature for 3 min using a sonicator (Sonics & Materials Inc., Newtown, Conn.) fitted with a micro-tip probe set to 750 W output, using 25% of the maximal amplitude and with pulsations of 9.0 sec every 9.2 sec, which gave a translucent liposome preparation with no precipitates. The final concentration of DOPC and oleic acid in the liposomes was 500 μM each. […]

[5] = liposomes of DOPC and oleic acid

Compound | effect on CCT activity [1] | effect of exogenously-added lipid on CCT activity [2] | also measured
glucosylceramide [GlcCer] | activated | – | effect on CCT activity [2, 5]: increased CCT activity; increase in the rate of CDP-choline synthesis [3]: > 2 fold; activation of CCT at the lowest concentration (purified rat brain CCT; DOPC liposomes, 2.5 mole percent): significant activation; maximal activation of CCT (purified rat brain CCT; DOPC liposomes, 10 mole percent): 3-4 fold; effect on CCT activity (purified rat brain CCT; DOPC/oleic acid liposomes): small but significant increase
CCCCCCCC/C=C\CCCCCCCC(=O)O [oleic acid] | – | – | CCT activity in DOPC/oleic acid liposomes versus DOPC liposomes alone (purified rat brain CCT; DOPC/oleic acid liposomes): ~10 fold
galactosylceramide [GalCer] | no significant effect | – | effect on CCT activity ([2]; DOPC liposomes): did not affect; effect on CCT activity [2, 5]: had no effect; effect on purified CCT (purified rat brain CCT; DOPC liposomes): no significant effect; effect on CCT activity (purified rat brain CCT; DOPC/oleic acid liposomes): no significant effect
CCCCCCCCCCCCC/C=C/[C@@H](O)[C@H](COC1OC(CO)C(O)C(O)C1O)NC(=O)CCCCCCC (some centres unmarked) [C8-GlcCer] | – | – | CCT activity [3]: 25.9±4.4 nmol/min/mg of protein
CCCCCCCCCC(=O)N[C@H](CN1CCOCC1)[C@H](O)c1ccccc1 [PDMP, D-threo-1-phenyl-2-decanoyl-amino-3-morpholino-1-propanol] | – | – | rate of axonal growth (rat hippocampal neurons): reduction; CCT activity after treatment of neurons [4]: significant reduction
CCCCCCCCCCCCCC=CC(O)C(COC1OC(CO)C(O)C(O)C1O)NC(=O)CCCCCCC (centres unmarked) [C8-GalCer] | – | – | CCT activity [3]: 9.1±0.8 nmol/min/mg of protein
CCCCCCCCCCCCC/C=C/[C@@H](O)[C@@H](N)COP(=O)([O-])OCC[N+](C)(C)C [lysosphingomyelin] | inhibited | – | –

The next lines start with results.

effect on CCT activity [1] | effect of exogenously-added lipid on CCT activity [2] | Compound | also measured
inhibited | – | CCCCCCCCCCCCC/C=C/[C@@H](O)C(N)CO[C@H]1O[C@H](CO)[C@@H](O[C@@H]2O[C@H](CO)[C@H](O)[C@H](O)[C@H]2O)[C@H](O)[C@@H]1O (some centres unmarked) [lactosylsphingosine] | –
inhibited | did not increase CCT activity | ceramide | –
inhibited | did not increase CCT activity | sphingomyelin [SM] | –
No significant effect | no elevation of activity | CCCCCCCCCCCCC/C=C/[C@@H](O)[C@@H](N)CO[C@@H]1O[C@H](CO)[C@H](O)[C@H](O)[C@H]1O [galactosylsphingosine] | –
inhibited | did not increase CCT activity | lactosylceramide | –
No significant effect | no elevation of activity | CCCCCCCCCCCCC/C=C/[C@@H](O)[C@@H](N)CO[C@@H]1O[C@H](CO)[C@@H](O)[C@H](O)[C@H]1O [glucosylsphingosine] | –
inhibited | – | CCCCCCCCCCCCC/C=C/[C@@H](O)[C@@H](N)CO [sphingosine] | –
